Experiments:
RBL-2H3 cells = test: Binding of FITC-labeled Ig LC to RBL-2H3 mast cell model (FACScan flow cytometer); assay type: cell-based, rat
Protocol: Basophilic leukemia cells RBL-2H3 (a gift of C. Fewtrell, Ithaca, N.Y., U.S.A.) of the rat, an established model for mast cells, were incubated with 200 ng/10^5 cells Ig LC labeled with fluorescein isothiocyanate. They were incubated for 30 minutes at 4° C. in the presence or absence of 250 μg/ml of the peptide LCBP prepared in preparation 1 (peptide binding to the light chain). Subsequently, they were washed using a phosphate-buffered saline supplemented with 1% v/v fetal calf serum and 0.01% w/v sodium azide. Binding of FITC-labeled Ig LC to RBL-2H3 cells was analyzed using a FACScan flow cytometer.
Curve 4 represents the autofluorescence of unlabeled RBL-2H3 cells.

mice = test: Bronchoconstriction (Penh, plethysmography) in mice passively sensitized with TNP-specific Ig LC and challenged intranasally with PSA; assay type: in vivo
Protocol: Lightly anaesthetized with halothane, mice were passively sensitized by injection with trinitrophenyl (TNP)-specific Ig LC (2 μg in 50 μl of sterile saline) in the retroorbital plexus. Control mice received only 50 μl of sterile saline. Thirty minutes after injection, while being lightly anaesthetized with halothane, all mice received intranasally 50 μl PSA-solution (picrylsulphonic acid dissolved in phosphate-buffered saline).
A part of each of these two groups of mice simultaneously received 200 μg LCBP (the peptide prepared in Example 1) intranasally.
Bronchoconstriction was measured as described by Kraneveld A. D. et al. (ref. 3) and Zuany-Amorim et al. (ref. 6). In short, five minutes before intranasal application of PSA, mice were placed in a plethysmographic chamber (Buxco Electronics Inc., Shanon, Conn.) in order to analyze respiration and to obtain basal line readings. After the intranasal administration, the animals were directly returned to the chamber. The respiratory resistance was measured for a period of 45 minutes. The respiratory resistance is expressed as a dimensionless value calculated by using the formula for the Penh (ref. 4).

For “Ac-AHWSGHCCL-NH2 (cysteine pairing not given here) [LCBP]”, the “Inhibition of Ig LC binding to mast cells” value (RBL-2H3 cells; LCBP 0.25 mg/ml, FIG. 1 curve 2) was “can be inhibited”, the “Inhibition of Ig LC binding to mast cells” value (RBL-2H3 cells; LCBP 0.50 mg/ml, FIG. 1 curve 3) was “can be inhibited” and the “Penh (maximum, respiratory resistance)” value (mice; LCBP/PBS/PSA group (200 μg LCBP intranasally, saline instead of Ig LC), time 0 min, basal line reading before the challenge) was 0.44 ± 0.05. For the same substance, the “Penh (maximum, respiratory resistance)” value (mice; LCBP/PBS/PSA group (200 μg LCBP intranasally, saline instead of Ig LC), time 2.5 min) was 0.60 ± 0.12, the “Penh (maximum, respiratory resistance)” value (mice; LCBP/PBS/PSA group (200 μg LCBP intranasally, saline instead of Ig LC), time 5 min) was 0.65 ± 0.23 and the “Penh (maximum, respiratory resistance)” value (mice; LCBP/PBS/PSA group (200 μg LCBP intranasally, saline instead of Ig LC), time 7.5 min) was 0.74 ± 0.12. For the same substance, the “Penh (maximum, respiratory resistance)” value (mice; LCBP/PBS/PSA group (200 μg LCBP intranasally, saline instead of Ig LC), time 10 min) was 0.53 ± 0.03, the “Penh (maximum, respiratory resistance)” value (mice; LCBP/PBS/PSA group (200 μg LCBP intranasally, saline instead of Ig LC), time 15 min) was 0.49 ± 0.06 and the “Penh (maximum, respiratory resistance)” value (mice; LCBP/PBS/PSA group (200 μg LCBP intranasally, saline instead of Ig LC), time 20 min) was 0.49 ± 0.03. The “Penh (maximum, respiratory resistance)” value (mice; LcBP/Ig LC/PSA group (200 μg LCBP intranasally, Ig LC-sensitized mice), time 0 min, basal line reading before the challenge) was 0.43 ± 0.05, the “Penh (maximum, respiratory resistance)” value (mice; LcBP/Ig LC/PSA group (200 μg LCBP intranasally, Ig LC-sensitized mice), time 2.5 min) was 0.87 ± 0.20 and the “Penh (maximum, respiratory resistance)” value (mice; LcBP/Ig LC/PSA group (200 μg LCBP intranasally, Ig LC-sensitized mice), time 5 min) was 1.12 ± 0.20. For the same substance, the “Penh (maximum, respiratory resistance)” value (mice; LcBP/Ig LC/PSA group (200 μg LCBP intranasally, Ig LC-sensitized mice), time 7.5 min) was 0.87 ± 0.10, the “Penh (maximum, respiratory resistance)” value (mice; LcBP/Ig LC/PSA group (200 μg LCBP intranasally, Ig LC-sensitized mice), time 10 min) was 0.87 ± 0.20 and the “Penh (maximum, respiratory resistance)” value (mice; LcBP/Ig LC/PSA group (200 μg LCBP intranasally, Ig LC-sensitized mice), time 15 min) was 0.85 ± 0.01. The “Penh (maximum, respiratory resistance)” value (mice; LcBP/Ig LC/PSA group (200 μg LCBP intranasally, Ig LC-sensitized mice), time 20 min) was 0.52 ± 0.05 and the “Inhibition of bronchoconstriction (elevation of Penh) induced by antigen (PSA)” value (mice; intranasal LCBP during passive sensitization (i.v.) with Ig LC) was “completely inhibit”.

Source: patent US7056511B2, “Inhibition of protein binding to mast cells” (Fornix Biosciences N.V., priority 1998, dated 2006)
